# In patent US8993624B2, “Method of preventing and treating inflammatory diseases and disorders with abscisic acid” (Virginia Tech Intellectual Properties, Inc., priority 2010, dated 2015):
# Columns and labels:
# NF-κB [1] = test: NF-κB activity in spleens of LPS-challenged mice; format: in vivo, mouse; conditions: spleen
# Experimental: (§1) NF-κB and NFAT activities—Spleens were diced into smaller pieces in lysis buffer containing dithiothreitol and a protease inhibitor cocktail and then further disrupted using a dounce ground glass homogenizer at 4° C. Nuclear extraction for tissue homogenate and BMM was performed using the Nuclear Extract kit (Active Motif, Carlsbad, Calif.) per the manufacturer's instructions. The extracts were used to perform a Bradford-based assay for quantifying the protein concentrations and stored at −80° C. NF-κB and NFATc1 activities were measured as previously described (13) by using the Trans-AM™ NF-κB p65 and the Trans-AM™ NFATc1 ELISA-based assays (Active Motif), respectively per the manufacturer's instructions.
# NF-κB [2] = test: NF-κB reporter activity assay in 3T3-L1 cells
# Influenza A/Udorn (H3N2) [3] = test: Post-exposure ABA by gavage, Influenza A/Udorn challenge in mice; format: in vivo, mouse
# [4] = tested on: CD3/CD28-stimulated splenocytes; test: Intracellular cAMP and mRNA in CD3/CD28-stimulated splenocytes; format: cell-based, mouse
# Experimental: (§2) Intracellular cAMP in CD3/CD28-stimulated splenocytes and LPS-stimulated macrophages—Spleens were excised from C57BL6/J mice under sterile conditions. Cells were released by disrupting the tissue between frosted glass slides and red blood cells were lysed with erythrocyte lysis buffer. Splenocytes were enumerated with a Coulter Counter (Beckman Coulter, Fullerton, Calif.) and seeded in cRPMI at 1×10^6/ml onto 24-well plates pre-coated with anti-mouse CD3 (5 μg/mL; BD Pharmingen) and anti-mouse CD28 (1 μg/mL; BD Pharmingen). […] For intracellular assessment of cAMP, cells were harvested into 0.1 M HCl and the lysates were collected. The cAMP concentration of the lysates was determined using an EIA kit (Assay Designs, Ann Arbor, Mich.).
# PPAR γ = test: LANCL2 siRNA and PPAR γ co-transfections in RAW macrophages; format: cell-based
# Experimental: LANCL2 siRNA and PPAR γ co-transfections—RAW macrophages were transfected with the PPAR γ plasmid as described in the preceding section with or without LANCL2 siRNA. Specifically, RAW macrophages were then co-transfected with 0.2-μg plasmid DNA and 0.25 μL LANCL2 siRNA (20 μM) per well using the Lipofectamine 2000 transfection reagent (Invitrogen). […] After incubation, RAW macrophages were harvested in reporter lysis reagent and luciferase activity was determined as described above. LANCL2 mRNA was measured by RT-PCR in control wells to assess the efficiency of knockdown.
# Influenza A/Udorn (H3N2) [5] = test: Dietary (prophylactic) ABA, influenza virus challenge in mice; format: in vivo, mouse; conditions: for survival: ABA diet
# NFATc1 = NFATc1 activity in spleens of LPS-challenged mice; format: in vivo, mouse; conditions: spleen
# Experimental: as §1
# macrophages = test: Intracellular cAMP in macrophages; format: cell-based, mouse; conditions: 10 minutes
# Experimental: as §2
# [6] = tested on: LPS-induced splenic gene expression; test: LPS challenge in mice, spleen microarray and network analysis
# Description: Microarray data analysis—After homogenization of spleens, total RNA was extracted and purified using the RNAeasy system according to manufacturer's instructions (Qiagen Valencia, Calif.). The QIAGEN RNase-free DNase supplement kit was used to ensure that the RNA was free from DNA contamination. RNA was then processed and labeled according to the standard target labeling protocols and the samples were hybridized, stained, and scanned per standard Affymetrix protocols at VBI core laboratory on Mouse 430 2.0 expression arrays (Affymetrix Inc., Santa Clara, Calif.). All statistical analysis of the data was performed within the R statistical environment—Version 2.9.0 (24) using Bioconductor packages (25)]. Raw microarray data from CEL files were read with ‘affy’ package (26) and pre-processed by gcRMA algorithm (GC Robust Multiarray Average) that performs the three steps: (i) adjustment of the gene expression signal against the background caused by optical noise and non-specific binding, (ii) robust multi-array normalization (27), and (iii) summarization of the probes belonging to each probe set. Empirical Bayes adjustment was applied and p-values were corrected for multiple testing. […] The selected list of genes was analysed with hypergeometric testing that applies Fisher's exact test to find association between interesting genes and membership within the KEGG pathway(s).
# The experiment followed a 2×2 factorial design with 2 factors: LPS and ABA, each with 2 levels: absence and presence. Thus there were four groups of mice: LPS & ABA, LPS & control, no LPS & control, no LPS & ABA. The design matrix, constructed in the package ‘limma’, defined coefficients for LPS main effect, ABA main effect and the interaction effect. […] These 43 probe sets were uploaded to IPA8.0 for Ingenuity Pathway Analysis (Ingenuity Systems, Redwood City, Calif.).
# [7] = network analysis, LPS challenged mice
smiles,measurement,setting,value
"CC1=CC(=O)CC(C)(C)C1(O)/C=C/C(C)=C\C(=O)O (racemic) [ABA, abscisic acid]",NF-κB activity,NF-κB [1],did not affect
same,NF-κB reporter activity,NF-κB [2],significantly suppressed
same,weight loss,Influenza A/Udorn (H3N2) [3]; 50 mg/kg,"slightly suppressed weight loss, although the differences were not statistically significant"
same,weight loss and recovery,"Influenza A/Udorn (H3N2) [3]; 100 mg/kg oral gavage once daily 10 days, from 4 hours post-infection",suppressed weight loss for both strains and accelerated recovery
same,accumulation of pro-inflammatory tipDC in lung,"Influenza A/Udorn (H3N2) [3]; 100 mg/kg, 7 dpi, FACS",lowered the accumulation of pro-inflammatory tipDC
same,expression of MCP-1 in lungs,Influenza A/Udorn (H3N2) [3]; 3 and 7 dpi,lowered expression of MCP-1
same,pulmonary angiopoietin like 4 (ANGIOPL4) mRNA expression,Influenza A/Udorn (H3N2) [3]; day 7 post-infection,upregulated
same,pulmonary interleukin-10 (IL-10) mRNA expression,Influenza A/Udorn (H3N2) [3]; day 7 post-infection,upregulated
same,pulmonary 5-LOX activating protein (FLAP) expression,Influenza A/Udorn (H3N2) [3]; day 10 post-infection,upregulation
same,pulmonary 5-lipooxygenase (5-LOX) expression,Influenza A/Udorn (H3N2) [3]; day 10 post-infection,upregulation
same,pulmonary LANCL2 expression,Influenza A/Udorn (H3N2) [3]; day 10 post-infection,upregulation
same,pulmonary PPAR γ expression,Influenza A/Udorn (H3N2) [3]; day 10 post-infection,upregulation
same,epithelial necrosis,"Influenza A/Udorn (H3N2) [3]; lung, WT",ameliorated
same,mucosal and submucosal inflammatory cell infiltration,"Influenza A/Udorn (H3N2) [3]; lung, WT",ameliorated
same,perivascular cuffing,"Influenza A/Udorn (H3N2) [3]; lung, WT",ameliorated
same,terminal airway infiltration,"Influenza A/Udorn (H3N2) [3]; lung, WT",ameliorated
same,beneficial effects on lung inflammatory lesions,Influenza A/Udorn (H3N2) [3]; mice lacking PPAR γ in myeloid cells (myeloid KO),abrogated
same,LANCL2 mRNA expression,[4],not LANCL2 mRNA expression
same,PPAR γ expression,[4],upregulation of PPAR γ
same,intracellular cAMP,[4]; ABA 10 μM,significantly increased intracellular cAMP
same,phosphodiesterase activity,[4]; data not shown,without affecting phosphodiesterase activity
same,PPAR γ reporter activity,"PPAR γ; normal LANCL2, ABA 1.25-10 μM, Ros 1 or 10 μM, vs untreated cells",significantly elevated PPAR γ
same,PPAR γ reporter activity,PPAR γ; with LANCL2 siRNA,neither ABA nor Ros significantly affected PPAR γ activity
same,survival,Influenza A/Udorn (H3N2) [5]; WT mice,100%
same,maximum loss of original body weight,"Influenza A/Udorn (H3N2) [5]; WT mice, ABA diet 100 mg/kg of diet",5%
same,lung MCP-1 mRNA expression,"Influenza A/Udorn (H3N2) [5]; WT mice, vs control diet",consistently lower levels of MCP-1 mRNA expression
same,extent of vascular infiltrates,"Influenza A/Udorn (H3N2) [5]; WT, vs control diet",diminished
same,infiltration of respiratory airways,"Influenza A/Udorn (H3N2) [5]; WT, vs control diet",diminished
same,lung MCP-1 mRNA expression,Influenza A/Udorn (H3N2) [5]; cKO mice,failed to down-regulate MCP-1 expression
same,beneficial effect on lung inflammatory cell infiltration,Influenza A/Udorn (H3N2) [5]; cKO mice fed ABA,abrogated
same,survival,Influenza A/Udorn (H3N2) [5]; cKO mice,71.2%
same,viral loads in the lungs,Influenza A/Udorn (H3N2) [5]; day 4 post-infection,no significant differences
same,expression of PPAR γ in BAL-derived cells,"Influenza A/Udorn (H3N2) [5]; healthy non-infected WT mice, 36 days",significantly increased
same,epithelial recovery,Influenza A/Udorn (H3N2) [5]; lung histopathology,neither did it have any effect
same,extent of epithelial necrosis,"Influenza A/Udorn (H3N2) [5]; lung histopathology, days 2, 4, 7",did not affect
same,weight loss,Influenza A/Udorn (H3N2) [5]; mice with defective PPAR γ expression in immune and epithelial cells (cKO),behaved similar to WT mice fed the control diet
same,LPS-mediated activation of NFATc1,NFATc1,significantly decreased
same,concentration at cAMP peak,macrophages,2.5 µM
same,cAMP peak over control,macrophages; 2.5 μM,10%
same,magnitude of LPS-modulated gene expression (fold-change),"[6]; 64 genes, spleen",attenuated
same,ABA effect on LPS-induced gene expression,[6]; absence of functional immune cell PPAR γ,impaired (or abrogated)
same,"nuclear receptors (PPAR γ, PPAR α, RXRα, RXRβ)",[6]; [7],up-regulation
same,"pro-inflammatory genes (IL-6, IL-1β, MIF and IFN-γ)",[6]; [7],down-regulation
same,"expression of IL-6, IFN-γ, TNF-α induced protein 2 and chemokine ligand 11","[6]; spleen, 6 hours post LPS",down-regulated
